Values quoted from earlier work in US20120164100A1, “TEMPERATURE SENSITIVE HYDROGEL AND BLOCK COPOLYMERS” (priority 2010, published 2012).

CCCCC[C@H](O)/C=C/[C@H]1[C@H](O)CC(=O)[C@@H]1C/C=C\CCCC(=O)O [PGE2, Prostaglandin E2]
solubility (pH above 6, Critical Micelle Concentration): about 5 mg/mL | half life (physiological condition): very short
